Test results as given in patent US20200276181A1, “THIENOISOQUINOLINES AND THEIR DERIVATIVES FOR TARGETING TUBULIN, CH-TOG, AURORA A KINASE, TPX2, CDK5RAP2 AND/OR ASPM” (VALORBEC, SEC, priority 2017, published 2020).

Key:
Assay type in all cases: cell-based
[1] = test system: A549 cells; assay: Viability IC50, high-throughput automated analysis (Table 4); conditions: Homo sapiens, 3 population doubling times
Protocol: (§1) FIG. 1A) is a line graph showing changes in the percentage of viable HFF-1, HeLa, A549 and HCT 116 cells after treatment with a range of C75 concentrations for 3 population doubling times (N=3). […] There were more rounded mitotic cells after C75 treatment in comparison to the control. FIG. 1C) is a line graph showing the percentage of HeLa and HFF1 cells in mitosis after treatment with various concentrations of C75 for 8 hours. The bars indicate standard deviation. FIG. 1D) is a series of images showing cells that were fixed and co-stained for tubulin (microtubules) and DAPI (DNA). Treatment of HeLa cells with 300 nM C75 caused the mitotic spindles to be disorganized, while they were not affected in HFF1 cells. […] The scale bar for the cells is 10 μm. […] FIG. 1F) is a cartoon schematic showing the key features of a metaphase cell.
(§2) The images in FIG. 1B) show fields of view of HeLa cells treated with (dimethyl sulfoxide) DMSO or 500 nM of C75. […] Higher concentrations of C75 caused spindle phenotypes in HFF1 cells, but they were quite different in comparison to HeLa cells (FIG. 1D).

[2] = test system: HCT 116 cells; assay: as above; conditions: Homo sapiens, 3 population doubling times
Protocol: as §1, §2

[3] = test system: HFF-1 cells; assay: as above; conditions: Homo sapiens, 3 population doubling times
Protocol: as §1, §2

[4] = test system: HeLa cells; assay: as above; conditions: Homo sapiens, 3 population doubling times
Protocol: as §1, §2

[5] = test system: HFF1 (non-cancer) cells; assay: Percentage of mitotic cells, nocodazole +/- C75; conditions: 200 nM C75 + 33 or 66 nM nocodazole
Protocol: FIG. 3A) is a line graph showing cytotoxicity of HeLa cells after treatment with varying concentrations of C75+/−a subthreshold dose of paclitaxel (Taxol™; 3 nM). The IC50 is shown by the dotted line. Bars show standard deviation. […] The bars indicate standard deviation. FIG. 3C) is a series of bar graphs showing the proportion of HCT 116 cells with bipolar aligned (grey), bipolar misaligned (dark grey), multipolar/fragmented (light grey, top portion of each bar) or monopolar (black) spindles 7 hours after treatment with control (DMSO), varying concentrations of paclitaxel or C75, or both as indicated (n=691; N=3). The bars show standard deviation. The combination treatments were compared to paclitaxel and C75 on their own by calculating ratios varying from the predicted ratio, and found to synergize at 100 and 200 nM. FIG. 3D) is bar graph showing the average distance between centrosome fragments in HCT116 cells after treatments as shown. While centrosome fragments moved closer together with increased concentrations of paclitaxel, they moved further apart with increased concentrations of C75 (n=105; N=3). […] FIG. 3F) is a line graph showing the percentage of mitotic HeLa or HFF1 cells treated with a range of nocodazole concentrations+/−C75 as indicated. The bars indicate standard deviation. […]

[6] = test system: HCT116 cells with lower levels of endogenous MCAK (MCAK RNAi); assay: Spindle phenotypes with MCAK RNAi; conditions: 300 nM C75
Protocol: FIG. 9A) is a series of images of HCT116 cells with lower levels of endogenous MCAK (MCAK RNAi), stained for DAPI (DNA) and tubulin (microtubules), and treated with 300 nM C75 or control. FIG. 9B) is a bar graph showing the proportion of spindle phenotypes in HCT116 cells treated as in 9A). The multipolar spindle phenotypes caused by C75 are suppressed by MCAK RNAi.
It was observed that the proportion of multipolar spindles caused by C75 are decreased after MCAK depletion.

For `COc1ccc(S(=O)(=O)N2Cc3ccccc3-c3sc(Br)cc32)cc1` [Compound C75], the IC50 [1] was 377 nM, the IC50 [2] was 431 nM and the IC50 [3] was 789 nM. For the same molecule, the IC50 [4] was 427 nM, the “change in proportion of mitotic cells” value [5] was “no change” and the “suppression of multipolar spindle phenotypes by MCAK RNAi” value [6] was “suppressed”.
